Reference: patent publication US9980943B2, “Methods of treating muscular dystrophy” (BOARD OF REGENTS OF THE NEVADA SYSTEM OF HIGHER EDUCATION, …, priority 2013, dated 2018)

Assays:
Type in all cases: cell-based, mouse
[1] = system: α7 integrin (LacZ reporter in α7βgal+/− myoblasts); experiment: Myoblast α7+/LacZ integrin FDG assay (Burkin assay in myoblasts, 96-well); conditions: α7+/LacZ myoblasts, 96-well
[2] = system: α7 integrin (LacZ reporter in α7+/LacZ myotubes); experiment: Myotube α7 integrin FDG assay (Burkin assay in myotubes, 96-well); conditions: myotubes
[3] = system: β-galactosidase in CMV-LacZ C2C12 myotubes; experiment: CMV-LacZ secondary screen in C2C12 myotubes (β-Gal stabilizing assay); conditions: C2C12 CMV-LacZ myotubes, fold relative to DMSO
Outline: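 β-gal stabilization was measured in C2C12 myoblasts or myotubes stably transfected with a CMV-driven LacZ construct, using the FDG β-gal assay. Compounds were tested in dose-response at 0.5, 1, 5, 10, 20 and 40 μM, with two replicates per point.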

[4] = system: β-galactosidase in CMV-LacZ C2C12 myoblasts; experiment: CMV-LacZ secondary screen in C2C12 myoblasts (β-Gal stabilizing assay); conditions: CMV-LacZ C2C12 myoblasts
Outline: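 First, C2C12 myoblasts were transfected with a linearized CMV-LACZ vector and clonal lines selected by FDG β-gal assay. Then cells were exposed to compounds at 0.5, 1, 5, 10, 20 and 40 μM in 96-well format, two replicates each, and β-gal measured.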

| Structure (SMILES) | Burkin Assay in Myoblasts, signal relative to DMSO ([1]; 0.5 uM) | Burkin Assay in Myoblasts, signal relative to DMSO ([1]; 1 uM) | Burkin Assay in Myoblasts, signal relative to DMSO ([1]; 5 uM) | Burkin Assay in Myoblasts, signal relative to DMSO ([1]; 10 uM) | Burkin Assay in Myoblasts, signal relative to DMSO ([1]; 20 uM) | Burkin Assay in Myoblasts, signal relative to DMSO ([1]; 40 uM) | Burkin Assay in Myotubes, α7 integrin LacZ reporter signal relative to DMSO ([2]; 0.5 uM) | Burkin Assay in Myotubes, α7 integrin LacZ reporter signal relative to DMSO ([2]; 1 uM) | Burkin Assay in Myotubes, α7 integrin LacZ reporter signal relative to DMSO ([2]; 5 uM) | Burkin Assay in Myotubes, α7 integrin LacZ reporter signal relative to DMSO ([2]; 10 uM) | Burkin Assay in Myotubes, α7 integrin LacZ reporter signal relative to DMSO ([2]; 20 uM) | Burkin Assay in Myotubes, α7 integrin LacZ reporter signal relative to DMSO ([2]; 40 uM) | CMV-LACZ in Myotubes, signal relative to DMSO ([3]; 0.5 uM) | CMV-LACZ in Myotubes, signal relative to DMSO ([3]; 1 uM) | CMV-LACZ in Myotubes, signal relative to DMSO ([3]; 5 uM) | CMV-LACZ in Myotubes, signal relative to DMSO ([3]; 10 uM) | CMV-LACZ in Myotubes, signal relative to DMSO ([3]; 20 uM) | CMV-LACZ in Myotubes, signal relative to DMSO ([3]; 40 uM) | CMV-LACZ in Myoblasts (β-galactosidase activity relative to DMSO) ([4]; 0.5 uM) | CMV-LACZ in Myoblasts (β-galactosidase activity relative to DMSO) ([4]; 1 uM) | other results |
| --- | --- | --- | --- | --- | --- | --- | --- | --- | --- | --- | --- | --- | --- | --- | --- | --- | --- | --- | --- | --- | --- |
| Nc1ncnc(NCc2ccccc2)c1[N+](=O)[O-] [MLS000698826-01] | 1.019 | 1.008 | 1.246 | 0.9598 | 0.9937 | 1.023 | 1.008 | 0.8718 | 1.08 | 0.9001 | 0.9575 | 0.7844 | 1.2010 | 1.0200 | 1.1232 | 0.9634 | 1.0505 | 1.0789 | 0.9942 | 0.9717 | CMV-LACZ in Myoblasts (β-galactosidase activity relative to DMSO) ([4]; 5 uM): 0.8824; CMV-LACZ in Myoblasts (β-galactosidase activity relative to DMSO) ([4]; 10 uM): 0.9013; CMV-LACZ in Myoblasts (β-galactosidase activity relative to DMSO) ([4]; 20 uM): 1.2944; CMV-LACZ in Myoblasts (β-galactosidase activity relative to DMSO) ([4]; 40 uM): 1.2519 |
| O=C(Nc1cc(-c2nc3ccccc3s2)ccc1Cl)c1ccc2c(c1)OCO2 [MLS000560266-01] | 0.953 | 0.8556 | 1.026 | 1.13 | 0.8321 | 0.5589 | 0.9891 | 0.8824 | 1.037 | 1.185 | 0.6706 | 0.6059 | 0.9724 | 1.0000 | 1.0253 | 1.0224 | 1.0520 | 0.9470 | 0.9030 | 0.8123 | CMV-LACZ in Myoblasts (β-galactosidase activity relative to DMSO) ([4]; 5 uM): 0.9405; CMV-LACZ in Myoblasts (β-galactosidase activity relative to DMSO) ([4]; 10 uM): 0.9991; CMV-LACZ in Myoblasts (β-galactosidase activity relative to DMSO) ([4]; 20 uM): 1.1095; CMV-LACZ in Myoblasts (β-galactosidase activity relative to DMSO) ([4]; 40 uM): 1.0484 |
| Cn1ccc(C(=O)Nc2cccnc2Cl)n1 [MLS001147478-01] | 1.142 | 1.091 | 1.0569 | 1.192 | 0.9651 | 0.8215 | 1.076 | 0.9677 | 0.9933 | 1.041 | 0.8876 | 0.8744 | 1.3536 | 1.3827 | 0.8937 | 1.2959 | 1.0810 | 0.9510 | 1.0721 | 0.8808 | CMV-LACZ in Myoblasts (β-galactosidase activity relative to DMSO) ([4]; 5 uM): 1.2105; CMV-LACZ in Myoblasts (β-galactosidase activity relative to DMSO) ([4]; 10 uM): 1.2999; CMV-LACZ in Myoblasts (β-galactosidase activity relative to DMSO) ([4]; 20 uM): 1.0513; CMV-LACZ in Myoblasts (β-galactosidase activity relative to DMSO) ([4]; 40 uM): 0.8747 |
